Assay results taken from US12215133B2 (BrightGene Bio-Medical Technology Co., Ltd., priority 2021, dated 2025).
Marks after values point to notes of the source that are not given here.

Key:
[1] = test system: db/db mice; assay: Inhibitory effect of BG128 on hyperglycemia in db/db mice (Experimental Example 3); format: in vivo; conditions: for Insulin in serum: 3 days after the last administration; for Insulin in serum / Fasting blood glucose: n = 11; for non-fasting blood glucose after the first administration: FIG. 11
[2] = test system: db/db mice; assay: as above; format: in vivo
Procedure: 55 6-8 week-old SPF-grade male db/db mice were purchased from Zhejiang Vital River Experimental Animal Technology Co., Ltd.
According to the dosage regimen in Table 7, a certain amount of Tirzepatide and BG128 were weighed and the vehicle (pH=7.0, 20 mM sodium citrate buffer) was added to formulated to the corresponding concentration. The formulation was performed once every 7 days, and the formulated mixture was sub-packaged and stored at 2° C.-8° C. in the dark.
Before the administration, according to the body weight and fasting blood glucose, the animals were grouped into: db/db-ND group, Tirzepatide—0.15 mg/kg group, BG128—0.05 mg/kg group, BG128—0.15 mg/kg group and BG128—0.5 mg/kg group, and each group have 11 animals; and see Table 7 for details.
The day of the first administration was recorded as d1, and the time was recorded by analogy; Tirzepatide and BG128 were administered once every three days, and the time points were d1, d4, d7, d10, d13, d16, d19, d22, d25 and d28, a total of 10 administrations; and see Table 7 for details.
Weighing: animals were weighed before administration once every three days until the end of the experiment.
The food intake of the animals was recorded starting at three days before the grouping for administration until the end of the experiment. The remaining amount was weighed before administration each time.
1) Non-fasting blood glucose determination: first administration 0 h (pre), 1 h, 2 h, 3 h, 6 h, 24 h, 48 h, 72 h;
2) Fasting blood glucose: the determination dates were respectively d-1 (before grouping), d7, d13, d19, d25 and d31. The animals were fasted for 6 hours, and the fasting blood glucose was determined before administration.
3 days after the last administration, the animals were weighed and fasted for 6 hours, and the fasting blood glucose of the animals was determined; after anesthesia, a portion of non-anticoagulated whole blood was collected through the orbital venous plexus, stood at room temperature for 30 minutes, and centrifuged at 5000 rpm for 5 minutes, the serum was separated and frozen at −80° C. for the determination of serum insulin content; a portion of anticoagulated whole blood was collected for the determination of HbA1c content. The serum insulin was determined by Elisa method.
The data was organized in Excel 2017 and Prism6.0, and the data was expressed as Mean±SEM (standard error). One-way ANOVA was used for analysis, and Tukey was selected as the analysis method for comparing significance of difference between groups; when the two groups were compared, T-test was used for two-tailed test between the two groups. […]

[3] = 0.05 mg/kg s.c. once every three days, anticoagulated whole blood, end of experiment, Mean ± SEM
[4] = 0.15 mg/kg s.c. once every three days, anticoagulated whole blood, end of experiment, Mean ± SEM
[5] = 0.5 mg/kg s.c. once every three days, anticoagulated whole blood, end of experiment, Mean ± SEM

## CNC(CCCCNC(=O)COCCOCCOCCNC(=O)COCCOCCOCCNC(=O)CCC(NC(=O)CC(=O)O)C(=O)O)C(N)=O (stereo not shown) [BG128]
[1]; 0.05 mg/kg s.c. once every three days, Mean ± SD
  Insulin in serum: 37649.0 ± 3597.0ª nIU/mL
[1]; 0.05 mg/kg s.c. once every three days, Day 0 (before administration, baseline), Mean ± SD
  Fasting blood glucose: 23.18 ± 1.15 mmol/L
[1]; 0.05 mg/kg s.c. once every three days, Day 7, Mean ± SD
  Fasting blood glucose: 21.68 ± 1.77^b mmol/L
[1]; 0.05 mg/kg s.c. once every three days, Day 13, Mean ± SD
  Fasting blood glucose: 21.68 ± 1.11 mmol/L
[1]; 0.05 mg/kg s.c. once every three days, Day 19, Mean ± SD
  Fasting blood glucose: 24.30 ± 1.41^c mmol/L
[1]; 0.05 mg/kg s.c. once every three days, Day 25, Mean ± SD
  Fasting blood glucose: 18.32 ± 1.37^c mmol/L
[1]; 0.05 mg/kg s.c. once every three days, Day 31, Mean ± SD
  Fasting blood glucose: 20.15 ± 1.91^c mmol/L
[1]; [3]
  HbA1C: 5.18 ± 0.23
  HbA1C%: 4.07 ± 0.13ª %
[1]; 0.15 mg/kg s.c. once every three days, Mean ± SD
  Insulin in serum: 30897.0 ± 5634.0^a nIU/mL
[1]; 0.15 mg/kg s.c. once every three days, Day 0 (before administration, baseline), Mean ± SD
  Fasting blood glucose: 23.17 ± 1.19 mmol/L
[1]; 0.15 mg/kg s.c. once every three days, Day 7, Mean ± SD
  Fasting blood glucose: 22.78 ± 1.11^a mmol/L
[1]; 0.15 mg/kg s.c. once every three days, Day 13, Mean ± SD
  Fasting blood glucose: 21.58 ± 1.13 mmol/L
[1]; 0.15 mg/kg s.c. once every three days, Day 19, Mean ± SD
  Fasting blood glucose: 26.14 ± 1.05^b mmol/L
[1]; 0.15 mg/kg s.c. once every three days, Day 25, Mean ± SD
  Fasting blood glucose: 15.70 ± 1.50^c mmol/L
[1]; 0.15 mg/kg s.c. once every three days, Day 31, Mean ± SD
  Fasting blood glucose: 20.38 ± 1.87^c mmol/L
[1]; [4]
  HbA1C%: 4.04 ± 0.14ª %
[1]; 0.5 mg/kg s.c. once every three days, Mean ± SD
  Insulin in serum: 32774.0 ± 6290.0^a nIU/mL
[1]; 0.5 mg/kg s.c. once every three days, Day 0 (before administration, baseline), Mean ± SD
  Fasting blood glucose: 22.99 ± 1.35 mmol/L
[1]; 0.5 mg/kg s.c. once every three days, Day 7, Mean ± SD
  Fasting blood glucose: 15.54 ± 1.49^c mmol/L
[1]; 0.5 mg/kg s.c. once every three days, Day 13, Mean ± SD
  Fasting blood glucose: 16.79 ± 1.20^c mmol/L
[1]; 0.5 mg/kg s.c. once every three days, Day 19, Mean ± SD
  Fasting blood glucose: 13.26 ± 1.91^c mmol/L
[1]; 0.5 mg/kg s.c. once every three days, Day 25, Mean ± SD
  Fasting blood glucose: 11.85 ± 1.74^c mmol/L
[1]; 0.5 mg/kg s.c. once every three days, Day 31, Mean ± SD
  Fasting blood glucose: 16.41 ± 1.68^c mmol/L
[1]; BG128 dose groups 0.05, 0.15, 0.5 mg/kg s.c., 0-72 h
  non-fasting blood glucose after the first administration: decreased rapidly within 24 h after the first administration
[1]; Tirzepatide 0.15 mg/kg, BG128 0.05, 0.15, 0.5 mg/kg s.c., FIG. 8 and 9
  body weight during the first administration: positively correlated with the administration dose
[1]; Tirzepatide 0.15 mg/kg, BG128 0.05, 0.15, 0.5 mg/kg s.c., FIG. 10
  food intake after the first administration vs db/db-ND group: positively correlated with the administration dose
[1]; equal dose (0.15 mg/kg s.c.), FIG. 8 and 9
  animal body weight loss rate compared with Tirzepatide: better than that of Tirzepatide administration group
[1]; equal dose (0.15 mg/kg s.c.), FIG. 10
  decrease in food intake compared with Tirzepatide: significantly greater than that of the positive control group Tirzepatide
[1]; high-dose group 0.5 mg/kg s.c., 24 h-72 h after administration
  non-fasting blood glucose after the first administration: maintained in a relatively low range
[2]; [4]
  HbA1C: 5.31 ± 0.19
[2]; [5]
  HbA1C: 4.68 ± 0.20
  HbA1C%: 3.33 ± 0.16^abde %
[2]; within 72 h of the first administration, equal dose 0.15 mg/kg, FIG. 11
  blood sugar suppression effect (non-fasting) compared with Tirzepatide: dose-dependent and better than that of positive drug Tirzepatide
